Drawing on patent US20140005163A1 (NOVARTIS AG, priority 2010, published 2014), this text covers IC50 for 18 molecules.

Assay [1] concerns PKB Ser473 phosphorylation in Rat1-myr-HA-p110 beta cells. The experiment in a line: Reverse protein array assay, PKB Ser473 phosphorylation in Rat1-myr-p110 beta cells. The note with it: 0.5 h, pAkt Ser473, 30 minutes incubation, read-out: p-PKB IC50. Format: cell-based. Put shortly:
(§1)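 Rat1 cells expressing myristoylated HA-tagged p110 alpha, beta or delta were plated for at least 20 h, then exposed to 8-step serial compound dilutions (0.2% DMSO final) for 30 min at 37 °C. Lysates were spotted at four dilutions on protein microarrays, and relative fluorescence intensity of phospho-Ser473 PKB was calculated.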

Assay [2] concerns PKB Ser473 phosphorylation in Rat1-myr-HA-p110 delta cells. The experiment in a line: Reverse protein array assay, PKB Ser473 phosphorylation in Rat1-myr-p110 delta cells. In kind it is cell-based. The note with it: read-out: p-PKB IC50. The gist of the method:
as §1

The test system of assay [3] is S6 Ribosomal Protein phosphorylation Ser235/236 in TSC1 null mouse embryo fibroblast (MEF) cells. Briefly: Reverse protein array assay, S6 Ribosomal Protein phosphorylation Ser235/236 in TSC1 null MEF cells. Format: cell-based. The note with it: 1 h, pS6 ribosomal protein Ser235/236, 60 minutes incubation, read-out: p-S6 IC50. The gist of the method: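 TSC1−/− MEFs, seeded and held ≥20 h at 37 °C/5% CO2, were exposed to 8-step serial compound dilutions (0.02% DMSO final; DMSO vehicle control) for 60 min at 37 °C. Cells were then lysed on ice for 10 min and lysates spotted onto reverse protein array chips.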

Assay [4] concerns PKB Ser473 phosphorylation in Rat1-myr-HA-p110 alpha cells. Briefly: Reverse protein array assay, PKB Ser473 phosphorylation in Rat1-myr-p110 alpha cells. In kind it is cell-based. Particulars: 0.5 h, pAkt Ser473, 30 minutes compound incubation, read-out: p-PKB IC50. Put shortly: as §1
The target in a further assay is T1, mTOR (Homo sapiens, UniProt P42345).
T1 construct: purchased Invitrogen Corporation (Carlsbad/CA, USA) PV4753
Briefly: Biochemical assay for m-TOR by TR-FRET. The note with it: 8 μM ATP, 400 nM GFP-4EBP1, 0.5 nM mTOR. Put shortly:
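TR-FRET detection of pThr46 on GFP-4EBP1 (400 nM final) using Tb3+-labelled antibody (0.5 nM), added with EDTA to stop reactions. Reactions ran at rt with 0.5 nM mTOR and 8 μM ATP (final) in HEPES pH 7.5 buffer containing 10 mM MnCl2.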
A general note: TR-FRET usually uses a lanthanide donor and a delayed reading to cut background.

T1 sequence (P42345 1360-2549 limits assumed): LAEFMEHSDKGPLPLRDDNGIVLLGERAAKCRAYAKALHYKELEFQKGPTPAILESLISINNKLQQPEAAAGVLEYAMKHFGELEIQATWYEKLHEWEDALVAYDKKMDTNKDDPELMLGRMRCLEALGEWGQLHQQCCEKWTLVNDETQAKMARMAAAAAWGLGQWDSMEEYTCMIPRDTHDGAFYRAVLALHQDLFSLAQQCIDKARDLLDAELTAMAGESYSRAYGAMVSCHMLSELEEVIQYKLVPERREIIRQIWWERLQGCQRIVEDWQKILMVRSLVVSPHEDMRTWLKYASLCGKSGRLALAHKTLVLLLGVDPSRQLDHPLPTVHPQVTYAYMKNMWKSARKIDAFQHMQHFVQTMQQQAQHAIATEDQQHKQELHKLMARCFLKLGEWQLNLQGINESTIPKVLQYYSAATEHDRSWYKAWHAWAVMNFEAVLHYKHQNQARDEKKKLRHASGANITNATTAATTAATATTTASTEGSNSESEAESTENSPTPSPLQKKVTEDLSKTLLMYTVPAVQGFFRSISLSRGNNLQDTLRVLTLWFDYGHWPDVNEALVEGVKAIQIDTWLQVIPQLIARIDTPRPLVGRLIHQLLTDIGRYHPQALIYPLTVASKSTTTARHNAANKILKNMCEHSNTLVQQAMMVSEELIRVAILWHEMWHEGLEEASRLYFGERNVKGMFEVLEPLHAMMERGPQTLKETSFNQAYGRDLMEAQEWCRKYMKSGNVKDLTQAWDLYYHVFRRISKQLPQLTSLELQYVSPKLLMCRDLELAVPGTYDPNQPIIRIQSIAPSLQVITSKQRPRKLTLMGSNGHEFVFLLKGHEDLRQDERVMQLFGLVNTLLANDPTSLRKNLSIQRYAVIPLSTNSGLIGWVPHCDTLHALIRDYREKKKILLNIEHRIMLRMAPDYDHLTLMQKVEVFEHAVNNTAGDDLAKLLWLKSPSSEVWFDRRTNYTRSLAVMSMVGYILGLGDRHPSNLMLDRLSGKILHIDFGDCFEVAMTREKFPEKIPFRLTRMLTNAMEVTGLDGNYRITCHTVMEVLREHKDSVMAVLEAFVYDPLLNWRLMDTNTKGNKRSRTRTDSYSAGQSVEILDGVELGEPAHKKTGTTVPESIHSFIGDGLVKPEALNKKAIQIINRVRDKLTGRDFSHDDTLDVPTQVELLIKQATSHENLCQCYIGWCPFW

In general, IC50 refers to the midpoint of a concentration-inhibition curve. On to `Cc1nn(C)cc1-n1c(=O)n(C)c2cnc3ccc(-c4cccnc4)cc3c21` [Example 10.2, 1-(1,3-Dimethyl-1H-pyrazol-4-yl)-3-methyl-8-pyridin-3-yl-1,3-dihydro-imidazo[4,5-c]quinolin-2-one], for which the half-maximal inhibitory concentration (IC50) in assay [1] was determined as 58 nM; in assay [2], 197 nM; in assay [3], 24 nM; in assay [4] it was 50 nM; at mTOR, 48 nM.
Take `CCNc1cncc(-c2ccc3ncc4c(c3c2)n(-c2cn(C)nc2C)c(=O)n4C)c1` [Example 122, 1-(1,3-Dimethyl-1H-pyrazol-4-yl)-8-(5-ethylamino-pyridin-3-yl)-3-methyl-1,3-dihydro-imidazo[4,5-c]quinolin-2-one]: the half-inhibitory concentration (IC50) in assay [1] was 22 nM; in assay [2] it was 56 nM; in assay [3] it was less than 0.5 nM; in assay [4], less than 5 nM; at mTOR, 5 nM.
As for `CCn1cc(-n2c(=O)n(C)c3cnc4ccc(-c5ccc(COC)nc5)cc4c32)c(C)n1` [Example 104, 1-(1-Ethyl-3-methyl-1H-pyrazol-4-yl)-8-(6-methoxymethyl-pyridin-3-yl)-3-methyl-1,3-dihydro-imidazo[4,5-c]quinolin-2-one], the IC50 was 37 nM in assay [1]; 110 nM in assay [2]; 39 nM in assay [3]; 71 nM in assay [4]; 53 nM on mTOR.
On to `Cc1ncc(-c2ccc3ncc4c(c3c2)n(-c2cn(C)nc2C)c(=O)n4C)cc1N` [Example 88.2, 8-(5-Amino-6-methyl-pyridin-3-yl)-1-(1,3-dimethyl-1H-pyrazol-4-yl)-3-methyl-1,3-dihydro-imidazo[4,5-c]quinolin-2-one], for which the IC50 in assay [1] amounted to 28 nM; in assay [2] it was 59 nM; in assay [3] it was 7 nM; in assay [4] it was 24 nM; at mTOR, 13 nM.
For the molecule `COc1cc(-c2ccc3ncc4c(c3c2)n(-c2cn(C(C)C)nc2C)c(=O)n4C)cnc1CO` [Example 194.1, 8-(6-Hydroxymethyl-5-methoxy-pyridin-3-yl)-1-(1-isopropyl-3-methyl-1H-pyrazol-4-yl)-3-methyl-1,3-dihydro-imidazo[4,5-c]quinolin-2-one], the IC50 was 81 nM in assay [1]; 145 nM in assay [2]; 20 nM in assay [3]; 44 nM in assay [4]; 101 nM at mTOR.
For `Cc1nn(C(C)C)cc1-n1c(=O)n(C)c2cnc3ccc(-c4cncc(C(O)(CF)CF)c4)cc3c21` [Example 219, 8-[5-(2-Fluoro-1-fluoromethyl-1-hydroxy-ethyl)-pyridin-3-yl]-1-(1-isopropyl-3-methyl-1H-pyrazol-4-yl)-3-methyl-1,3-dihydro-imidazo[4,5-c]quinolin-2-one], the concentration for half-maximal inhibition (IC50) was 497 nM in assay [1]; 297 nM in assay [2]; 6 nM in assay [3]; 52 nM in assay [4]; 139 nM at mTOR.
As to `Cc1nn(C)cc1-n1c(=O)n(C)c2cnc3ccc(-c4cccc(N(C)S(C)(=O)=O)c4)cc3c21` [Example 117, N-{3-[1-(1,3-Dimethyl-1H-pyrazol-4-yl)-3-methyl-2-oxo-2,3-dihydro-1H-imidazo[4,5-c]quinolin-8-yl]-phenyl}-N-methyl-methanesulfonamide], the IC50 in assay [1] was determined as 659 nM; in assay [2] it was 425 nM; in assay [3] it was 154 nM; in assay [4] it was 282 nM; at mTOR it was 470 nM.
With `COc1cc(-c2ccc3ncc4c(c3c2)n(-c2cn(C)nc2Cl)c(=O)n4C)cnc1CO` [Example 194.2, 1-(3-chloro-1-methyl-1H-pyrazol-4-yl)-8-(6-hydroxymethyl-5-methoxy-pyridin-3-yl)-3-methyl-1,3-dihydro-imidazo[4,5-c]quinolin-2-one], the half-inhibitory concentration (IC50) in assay [1] was 10 nM; in assay [2], 27 nM; in assay [3] it was 2 nM; in assay [4], 9 nM; on mTOR, 6 nM.
For the molecule `Cc1nn(C)cc1-n1c(=O)n(C)c2cnc3ccc(-c4ccc(N5CCN(C)CC5)nc4)cc3c21` [Example 96, 1-(1,3-Dimethyl-1H-pyrazol-4-yl)-3-methyl-8-[6-(4-methyl-piperazin-1-yl)-pyridin-3-yl]-1,3-dihydro-imidazo[4,5-c]quinolin-2-one], the IC50 in assay [1] amounted to 37 nM; in assay [2] it was 60 nM; in assay [3], 7 nM; in assay [4], 12 nM; at mTOR it was 87 nM.
Consider `Cc1nn(C)cc1-n1c(=O)n(C)c2cnc3ccc(-c4cnc(N)nc4)cc3c21` [Example 81.1, 8-(2-Amino-pyrimidin-5-yl)-1-(1,3-dimethyl-1H-pyrazol-4-yl)-3-methyl-1,3-dihydro-imidazo[4,5-c]quinolin-2-one], for which the half-inhibitory concentration (IC50) came to 18 nM in assay [1]; 11 nM in assay [2]; 1.69 nM in assay [3]; 13 nM in assay [4]; 4 nM on mTOR.
Taken in the same sequence, the figures for `Cc1nn(C)cc1-n1c(=O)n(C)c2cnc3ccc(-c4cnc5[nH]ccc5c4)cc3c21` [Example 36, 1-(1,3-dimethyl-1H-pyrazol-4-yl)-3-methyl-8-(1H-pyrrolo[2,3-b]pyridin-5-yl)-1,3-dihydro-imidazo[4,5-c]quinolin-2-one] were 6 nM, 8 nM, less than 0.5 nM, 5 nM and less than 3 nM.
On to `CNc1ccc(-c2ccc3ncc4c(c3c2)n(-c2cn(C)nc2Cl)c(=O)n4C)cn1` [Example 118.5, 1-(3-Chloro-1-methyl-1H-pyrazol-4-yl)-3-methyl-8-(6-methylamino-pyridin-3-yl)-1,3-dihydro-imidazo[4,5-c]quinolin-2-one], for which the IC50 in assay [1] was less than 5 nM; in assay [2], 6 nM; in assay [3], less than 0.5 nM; in assay [4] it was less than 5 nM; at mTOR, less than 3 nM.
For the molecule `CNc1cc(-c2ccc3ncc4c(c3c2)n(-c2c(C)nn(C)c2C)c(=O)n4C)cnc1CO` [Example 158.4, 8-(6-Hydroxymethyl-5-methylamino-pyridin-3-yl)-3-methyl-1-(1,3,5-trimethyl-1H-pyrazol-4-yl)-1,3-dihydro-imidazo[4,5-c]quinolin-2-one], the IC50 in assay [1] was 88 nM; in assay [2] it was 95 nM; in assay [3], 150 nM; in assay [4], 114 nM; at mTOR, 70 nM.
Consider `CCNc1ncc(-c2ccc3ncc4c(c3c2)n(-c2c(C)nn(C)c2C)c(=O)n4C)cc1C(F)(F)F` [Example 145.1, 8-(6-Ethylamino-5-trifluoromethyl-pyridin-3-yl)-3-methyl-1-(1,3,5-trimethyl-1H-pyrazol-4-yl)-1,3-dihydro-imidazo[4,5-c]quinolin-2-one], for which the IC50 in assay [1] worked out at 168 nM; in assay [2] it was 280 nM; in assay [3] it was 50 nM; in assay [4] it was 69 nM; at mTOR it was 172 nM.
Consider `CCNc1cc(-c2ccc3ncc4c(c3c2)n(-c2c(C)nn(CCOC)c2C)c(=O)n4C)cnc1C` [Example 87.4, 8-(5-Ethylamino-6-methyl-pyridin-3-yl)-1-[1-(2-methoxy-ethyl)-3,5-dimethyl-1H-pyrazol-4-yl]-3-methyl-1,3-dihydro-imidazo[4,5-c]quinolin-2-one], for which the IC50 is 85 nM in assay [1]; 91 nM in assay [2]; 41 nM in assay [3]; 33 nM in assay [4]; 77 nM on mTOR.
For `CCOc1cccc(-c2ccc3ncc4c(c3c2)n(-c2cn(C)nc2C)c(=O)n4C)c1` [Example 57, 1-(1,3-Dimethyl-1H-pyrazol-4-yl)-8-(3-ethoxy-phenyl)-3-methyl-1,3-dihydro-imidazo[4,5-c]quinolin-2-one] the same measures were 106 nM, 288 nM, 5 nM, 51 nM and 322 nM.
Take `CNc1ncc(-c2ccc3ncc4c(c3c2)n(-c2cn(C(C)C)nc2C)c(=O)n4C)cc1Cl` [Example 146.3, 8-(5-Chloro-6-methylamino-pyridin-3-yl)-1-(1-isopropyl-3-methyl-1H-pyrazol-4-yl)-3-methyl-1,3-dihydro-imidazo[4,5-c]quinolin-2-one]: the IC50 amounted to 119 nM in assay [1]; 24 nM in assay [2]; 3 nM in assay [3]; 20 nM in assay [4]; 9 nM at mTOR.
For `CCOC(C)(C)c1cncc(-c2ccc3ncc4c(c3c2)n(-c2cn(C)nc2C)c(=O)n4C)c1` [Example 240, 1-(1,3-Dimethyl-1H-pyrazol-4-yl)-8-[5-(1-ethoxy-1-methyl-ethyl)-pyridin-3-yl]-3-methyl-1,3-dihydro-imidazo[4,5-c]quinolin-2-one] the same measures were 128 nM, 131 nM, 11 nM, 72 nM and 79 nM.
